Measurements from ChEMBL document CHEMBL1138549, “Synthesis of new 2-substituted pyrido[2,3-d]pyrimidin-4(1H)-ones and their antibacterial activity” (2009).
≈ marks a conversion by molar mass, not a printed value. Calls of active or inactive are those of the source. The calls are words filed in the database; no cut-off is given here.

How the values were obtained:
MCF7 = test: Cytotoxicity against human MCF7 cells up to 150 ug/ml; assay type: functional, cell-based
Staphylococcus aureus = test: Antibacterial activity against Staphylococcus aureus MTCC 96 after 24 hrs by NCCLS M7-A5 method; assay type: functional; conditions: MTCC 96, 24 h
Klebsiella pneumoniae = test: Antibacterial activity against Klebsiella pneumoniae MTCC 109 after 24 hrs by NCCLS M7-A5 method; assay type: functional; conditions: MTCC 109, 24 h
Escherichia coli = test: Antibacterial activity against Escherichia coli MTCC 722 after 24 hrs by NCCLS M7-A5 method; assay type: functional; conditions: MTCC 722, 24 h
Candida albicans = test: Antifungal activity against Candida albicans at 200 ug/ml; assay type: functional, organism-based
Aspergillus niger = test: Antifungal activity against Aspergillus niger at 200 ug/ml; assay type: functional, organism-based
Bacillus subtilis = test: Antibacterial activity against Bacillus subtilis MTCC 441 after 24 hrs by NCCLS M7-A5 method; assay type: functional; conditions: MTCC 441, 24 h

Row | SMILES | Activity (MCF7) | MIC (Staphylococcus aureus) [µg/mL] | MIC (Klebsiella pneumoniae) [µg/mL] | MIC (Escherichia coli) [µg/mL] | Activity (Candida albicans) | Activity (Aspergillus niger) | MIC (Bacillus subtilis) [µg/mL]
1 | Cc1cc(C)c2c(=O)[nH]c(-c3ccccc3O)nc2n1 | Not toxic | 50 (≈ 187 µM) | 100 (≈ 374 µM) | 50 (≈ 187 µM) | inactive | inactive | 50 (≈ 187 µM)
2 | Cc1cc(C)c2c(n1)NC(c1cccc(Cl)c1Cl)NC2=O (configuration not stated) | Not toxic | 50 (≈ 155 µM) | 100 (≈ 310 µM) | – | inactive | inactive | 25 (≈ 77.6 µM)
3 | COc1ccc(-c2nc3nc(C)cc(C)c3c(=O)[nH]2)c(OC)c1 | Not toxic | 25 (≈ 80.3 µM) | 50 (≈ 161 µM) | 25 (≈ 80.3 µM) | inactive | inactive | 12.5 (≈ 40.1 µM)
4 | Cc1cc(C)c2c(=O)[nH]c(-c3cc(C)c(O)c(C)c3)nc2n1 | Not toxic | 6.25 (≈ 21.2 µM) | 12.5 (≈ 42.3 µM) | 6.25 (≈ 21.2 µM) | inactive | inactive | 12.5 (≈ 42.3 µM)
5 | COc1ccc(C2NC(=O)c3c(C)cc(C)nc3N2)cc1 (configuration not stated) | Not toxic | 12.5 (≈ 44.1 µM) | 6.25 (≈ 22.1 µM) | 3.25 (≈ 11.5 µM) | inactive | inactive | 6.25 (≈ 22.1 µM)
6 | COc1ccc(-c2nc3nc(C)cc(C)c3c(=O)[nH]2)cc1OC | Not toxic | 6.25 (≈ 20.1 µM) | 12.5 (≈ 40.1 µM) | 12.5 (≈ 40.1 µM) | inactive | inactive | 6.25 (≈ 20.1 µM)
7 | Cc1cc(C)c2c(=O)[nH]c(-c3cccc(Cl)c3Cl)nc2n1 | Not toxic | 100 (≈ 312 µM) | – | – | inactive | inactive | 50 (≈ 156 µM)
8 | COc1cc(-c2nc3nc(C)cc(C)c3c(=O)[nH]2)cc(OC)c1OC | Not toxic | 6.25 (≈ 18.3 µM) | 6.25 (≈ 18.3 µM) | 25 (≈ 73.2 µM) | inactive | inactive | 12.5 (≈ 36.6 µM)
9 | COc1ccc(C2NC(=O)c3c(C)cc(C)nc3N2)c(OC)c1 (configuration not stated) | Not toxic | 12.5 (≈ 39.9 µM) | 12.5 (≈ 39.9 µM) | 25 (≈ 79.8 µM) | inactive | inactive | 3.25 (≈ 10.4 µM)
10 | COc1ccc(C2NC(=O)c3c(C)cc(C)nc3N2)c(O)c1 (configuration not stated) | Not toxic | 25 (≈ 83.5 µM) | 25 (≈ 83.5 µM) | 50 (≈ 167 µM) | inactive | inactive | 25 (≈ 83.5 µM)
11 | COc1ccc(-c2nc3nc(C)cc(C)c3c(=O)[nH]2)c(O)c1 | Not toxic | 50 (≈ 168 µM) | 50 (≈ 168 µM) | 50 (≈ 168 µM) | inactive | inactive | 50 (≈ 168 µM)
12 | Cc1cc(C)c2c(n1)NC(c1ccccc1O)NC2=O (configuration not stated) | Not toxic | 50 (≈ 186 µM) | 50 (≈ 186 µM) | 50 (≈ 186 µM) | inactive | inactive | 25 (≈ 92.8 µM)
13 | Cc1cc(C)c2c(n1)NC(c1cc(C)c(O)c(C)c1)NC2=O (configuration not stated) | Not toxic | 3.25 (≈ 10.9 µM) | 12.5 (≈ 42 µM) | 6.25 (≈ 21 µM) | inactive | inactive | 3.25 (≈ 10.9 µM)
14 | Cc1cc(C)c2c(=O)[nH]c(-c3cccc(C)c3C)nc2n1 | Not toxic | 12.5 (≈ 44.7 µM) | 50 (≈ 179 µM) | 12.5 (≈ 44.7 µM) | inactive | inactive | 12.5 (≈ 44.7 µM)
15 | CC(=O)Oc1ccc(C2NC(=O)c3c(C)cc(C)nc3N2)cc1 (configuration not stated) | Not toxic | 12.5 (≈ 40.1 µM) | 50 (≈ 161 µM) | 25 (≈ 80.3 µM) | inactive | inactive | 6.25 (≈ 20.1 µM)
16 | COc1ccc(C2NC(=O)c3c(C)cc(C)nc3N2)cc1OC (configuration not stated) | Not toxic | 3.25 (≈ 10.4 µM) | 12.5 (≈ 39.9 µM) | 6.25 (≈ 19.9 µM) | inactive | inactive | 3.25 (≈ 10.4 µM)
17 | CC(=O)Oc1ccc(-c2nc3nc(C)cc(C)c3c(=O)[nH]2)cc1 | Not toxic | 25 (≈ 80.8 µM) | 50 (≈ 162 µM) | 25 (≈ 80.8 µM) | inactive | inactive | 25.5 (≈ 82.4 µM)
18 | COc1cc(-c2nc3nc(C)cc(C)c3c(=O)[nH]2)ccc1O | Not toxic | 12.5 (≈ 42 µM) | 50 (≈ 168 µM) | 50 (≈ 168 µM) | inactive | inactive | 25 (≈ 84.1 µM)
19 | Cc1cc(C)c2c(n1)NC(c1cccc(C)c1C)NC2=O (configuration not stated) | Not toxic | 12.5 (≈ 44.4 µM) | 25 (≈ 88.9 µM) | 12.5 (≈ 44.4 µM) | inactive | inactive | 6.25 (≈ 22.2 µM)
20 | COc1cc(C2NC(=O)c3c(C)cc(C)nc3N2)cc(OC)c1OC (configuration not stated) | Not toxic | 1.25 (≈ 3.64 µM) | 1.25 (≈ 3.64 µM) | 3.25 (≈ 9.46 µM) | inactive | inactive | 3.25 (≈ 9.46 µM)
21 | O=C(O)c1cn(C2CC2)c2cc(N3CCNCC3)c(F)cc2c1=O [CIPROFLOXACIN] | – | 0.39 (≈ 1.18 µM) | 0.78 (≈ 2.35 µM) | – | – | – | 0.78 (≈ 2.35 µM)
22 | Cc1cc(C)c2c(=O)[nH]c(-c3ccco3)nc2n1 | Not toxic | 25 (≈ 104 µM) | 50 (≈ 207 µM) | 25 (≈ 104 µM) | inactive | inactive | 12.5 (≈ 51.8 µM)
23 | Cc1cc(C)c2c(=O)[nH]c(-c3cccs3)nc2n1 | Not toxic | 25 (≈ 97.2 µM) | 50 (≈ 194 µM) | 12.5 (≈ 48.6 µM) | inactive | inactive | 12.5 (≈ 48.6 µM)
24 | COc1cc(C2NC(=O)c3c(C)cc(C)nc3N2)ccc1O (configuration not stated) | Not toxic | 1.25 (≈ 4.18 µM) | 50 (≈ 167 µM) | 50 (≈ 167 µM) | inactive | inactive | 12.5 (≈ 41.8 µM)
25 | Cc1cc(C)c2c(n1)NC(c1cccs1)NC2=O (configuration not stated) | Not toxic | 12.5 (≈ 48.2 µM) | 25 (≈ 96.4 µM) | 12.5 (≈ 48.2 µM) | inactive | inactive | 6.25 (≈ 24.1 µM)
26 | COc1ccc(-c2nc3nc(C)cc(C)c3c(=O)[nH]2)cc1 | Not toxic | 12.5 (≈ 44.4 µM) | 25 (≈ 88.9 µM) | 12.5 (≈ 44.4 µM) | inactive | inactive | 25 (≈ 88.9 µM)
27 | Cc1cc(C)c2c(n1)NC(c1ccco1)NC2=O (configuration not stated) | Not toxic | 12.5 (≈ 51.4 µM) | 12.5 (≈ 51.4 µM) | 25 (≈ 103 µM) | inactive | inactive | 3.25 (≈ 13.4 µM)
